This is an account of results in ChEMBL document CHEMBL1201862, “PubChem BioAssay data set” (2004).

Among the test systems are SNB-75; SN12C; UACC-257; UO-31; EKVX; Malme-3M; MCF7; NCI-H226; PC-3; SF-295; 786-0; CCRF-CEM; NCI-H460; K562; HT-29; CAKI-1; KM12; RPMI-8226; NCI-H522; MDA-MB-435.
What all share (assay): growth of human tumour cells (NCI), 48 h

Molecules are shown by their SMILES.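 Following 48 hours of exposure in 96-well plates, responses at five concentrations were used to interpolate endpoints linearly. The concentration for 50% growth inhibition is given as GI50.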 Activity calls are given as the source filed them. Cut-off read from the data, not from the text of the source: active = GI50 up to about 1.1 µM and inactive = higher. Bounds are passed on as bounds.

With `CCOC(=O)N(NC(=O)NC(C)C)c1ccccc1`, the GI50 with SNB-75, with SN12C, with UACC-257, with UO-31, in the experiment with EKVX and in the experiment with Malme-3M was > 100 µM (inactive) in each case. The GI50 in the experiment on MCF7, in the experiment with NCI-H226, in the experiment with PC-3, in the experiment with SF-295, in the experiment with 786-0 and in the experiment on CCRF-CEM was > 100 µM (inactive) each time. Besides, the GI50 with NCI-H460, in the experiment on K562, in the experiment on HT-29, with CAKI-1 and in the experiment on KM12 was > 100 µM (inactive) each time.
As to `Cc1cc2c(cc1Cl)SSc1cc(Cl)c(C)cc1S(=O)(=O)Nc1nc(N)nn1C(O)n1nc(N)nc1NS2(=O)=O`, the GI50 with SNB-75, in the experiment on SN12C, in the experiment with UACC-257, in the experiment with RPMI-8226, in the experiment on UO-31 and with EKVX was > 10 µM (inactive) throughout. The GI50 in the experiment with Malme-3M, with NCI-H522, in the experiment on MCF7, with NCI-H226, in the experiment with PC-3 and with SF-295 was > 10 µM (inactive) in each case. Moreover, the GI50 with 786-0, with CCRF-CEM, in the experiment on NCI-H460, with K562, in the experiment on HT-29 and with CAKI-1 was > 10 µM (inactive) each time. Moreover, the GI50 with KM12 is > 10 µM (inactive).
As to `O=C1CCc2nc3ncccc3cc2C1`, the GI50 in the experiment on SNB-75 was > 100 µM (inactive); with SN12C it was > 100 µM (inactive); with UACC-257, > 100 µM (inactive); in the experiment with RPMI-8226, 64.1 µM (inactive); in the experiment with UO-31, 79.8 µM (inactive); with EKVX, > 100 µM (inactive). Also, the GI50 is > 100 µM (inactive) in the experiment with Malme-3M; 22.2 µM (inactive) with NCI-H522; > 100 µM (inactive) in the experiment on NCI-H226; > 100 µM (inactive) in the experiment on PC-3; > 100 µM (inactive) with SF-295; 44 µM (inactive) in the experiment on MDA-MB-435. In addition, the GI50 with 786-0 is > 100 µM (inactive); with CCRF-CEM, 30.5 µM (inactive); in the experiment with NCI-H460, 99.5 µM (inactive); with K562, 29.2 µM (inactive); in the experiment with CAKI-1, > 100 µM (inactive).
As to `CN1C2CCC1CC(CCOC(c1ccc(F)cc1)c1ccc(F)cc1)C2` (stereo not drawn), the GI50 in the experiment with SNB-75 was 14.3 µM (inactive); in the experiment on SN12C, 18.4 µM (inactive); in the experiment on UACC-257, 17.1 µM (inactive); with RPMI-8226, 18.6 µM (inactive); in the experiment on UO-31, 14.6 µM (inactive); in the experiment with EKVX, 13.9 µM (inactive). Also, the GI50 is 15.1 µM (inactive) in the experiment with Malme-3M; 17.1 µM (inactive) with NCI-H522; 15.3 µM (inactive) in the experiment with NCI-H226; 15.5 µM (inactive) with PC-3; 16.9 µM (inactive) with SF-295; 12.4 µM (inactive) in the experiment on MDA-MB-435. For the same compound, the GI50 is 15.9 µM (inactive) with 786-0; 18.4 µM (inactive) in the experiment with CCRF-CEM; 17.5 µM (inactive) in the experiment with NCI-H460; 12.4 µM (inactive) in the experiment on K562; 6.73 µM (inactive) in the experiment with HT-29; 16.3 µM (inactive) in the experiment on CAKI-1. The GI50 in the experiment on KM12 was 14.8 µM (inactive).
`CN(C)c1ccc(/C=C2\C[C@H]3[C@@H]4CCC5=CC(=O)CC[C@]5(C)[C@H]4CC[C@]3(C)C2=O)cc1`: the GI50 in the experiment on SNB-75 is > 100 µM (inactive); in the experiment on SN12C, 44.3 µM (inactive); with UACC-257 it was 19 µM (inactive); with RPMI-8226, 17.5 µM (inactive); in the experiment with UO-31, 63.2 µM (inactive); with EKVX it was 19.2 µM (inactive). For the same compound, the GI50 in the experiment with Malme-3M is 25 µM (inactive); with MCF7, 21.8 µM (inactive); in the experiment with NCI-H226, 62.4 µM (inactive); with PC-3 it was 12.6 µM (inactive); in the experiment with SF-295 it was > 100 µM (inactive); with 786-0 it was 48 µM (inactive). The GI50 in the experiment on NCI-H460 is 17.4 µM (inactive); in the experiment with K562 it was 19 µM (inactive); in the experiment with HT-29, 23.9 µM (inactive); in the experiment with CAKI-1 it was > 100 µM (inactive); with KM12 it was 72.1 µM (inactive).
Regarding `COC(=O)[C@@H]1CN(C(=O)c2ccccc2)C(=O)N1C(=O)OCc1ccccc1`, the GI50 in the experiment with SNB-75, in the experiment on SN12C, with UACC-257, in the experiment with RPMI-8226, with UO-31 and in the experiment on EKVX was > 100 µM (inactive) in each case. In addition, the GI50 with Malme-3M, with NCI-H522, with MCF7, in the experiment with NCI-H226, with SF-295 and in the experiment on MDA-MB-435 was > 100 µM (inactive) throughout. Besides, the GI50 in the experiment on 786-0, in the experiment on CCRF-CEM, with NCI-H460, with K562, in the experiment with HT-29 and in the experiment with CAKI-1 was > 100 µM (inactive) in each case. For the same compound, the GI50 in the experiment with KM12 was > 100 µM (inactive).
As to `COc1c(NC(C)=O)c2ccccc2c2ccccc12`, the GI50 was > 100 µM (inactive) with SN12C; > 100 µM (inactive) with UACC-257; 89.3 µM (inactive) in the experiment with UO-31; > 100 µM (inactive) in the experiment on EKVX; > 100 µM (inactive) in the experiment with Malme-3M; > 100 µM (inactive) with NCI-H522. The GI50 with NCI-H226 is 49.5 µM (inactive); with PC-3 it was > 100 µM (inactive); in the experiment on SF-295, > 100 µM (inactive); with MDA-MB-435, > 100 µM (inactive); with 786-0, > 100 µM (inactive); in the experiment on CCRF-CEM, > 100 µM (inactive). In addition, the GI50 in the experiment with NCI-H460 was > 100 µM (inactive); with K562, 75 µM (inactive); with HT-29, > 100 µM (inactive); in the experiment with KM12, > 100 µM (inactive).
Turning to `CCOP(=O)(OCC)C(c1ccc(F)cc1)N(C(=O)NC(F)(F)F)c1ccc(OC)cc1` (stereo not drawn), the GI50 in the experiment on SNB-75, in the experiment on SN12C, with UACC-257, in the experiment on RPMI-8226, with UO-31 and in the experiment with EKVX was > 100 µM (inactive) each time. Also, the GI50 in the experiment with Malme-3M, in the experiment with NCI-H522, in the experiment on MCF7, in the experiment on NCI-H226, in the experiment with SF-295 and in the experiment with MDA-MB-435 was > 100 µM (inactive) throughout. Moreover, the GI50 with 786-0, in the experiment on CCRF-CEM, in the experiment with NCI-H460, in the experiment on K562, in the experiment on HT-29 and in the experiment with CAKI-1 was > 100 µM (inactive) throughout. Also, the GI50 in the experiment on KM12 is > 100 µM (inactive).
Turning to `c1ccc2sc(C3(N4CCC5(CC4)OCCO5)CCCCC3)cc2c1`, the GI50 is 56.4 µM (inactive) in the experiment on SNB-75; 88.3 µM (inactive) in the experiment on SN12C; 60.1 µM (inactive) in the experiment with UACC-257; 29.4 µM (inactive) in the experiment with RPMI-8226; > 100 µM (inactive) in the experiment with UO-31; > 100 µM (inactive) in the experiment on EKVX. The GI50 with Malme-3M was > 100 µM (inactive); with NCI-H522, 78 µM (inactive); with MCF7, 29.4 µM (inactive); in the experiment on NCI-H226 it was 18.6 µM (inactive); with SF-295, > 100 µM (inactive); in the experiment with MDA-MB-435, 58.6 µM (inactive). Further, the GI50 in the experiment on 786-0 is 99.1 µM (inactive); with CCRF-CEM, 29 µM (inactive); with NCI-H460 it was 48.5 µM (inactive); with K562 it was > 100 µM (inactive); in the experiment with HT-29 it was 21.1 µM (inactive); with CAKI-1 it was > 100 µM (inactive). Besides, the GI50 in the experiment on KM12 is 56.4 µM (inactive).
As to `COc1ccc(C(=O)C(c2ccc(OC)cc2)C2(O)C(=O)Nc3ccc([N+](=O)[O-])cc32)cc1` (stereo not drawn), the GI50 in the experiment with SNB-75 was 32.3 µM (inactive); in the experiment with SN12C, 12.1 µM (inactive); in the experiment with UACC-257, > 100 µM (inactive); with RPMI-8226 it was > 100 µM (inactive); in the experiment with UO-31 it was > 100 µM (inactive); in the experiment on EKVX it was > 100 µM (inactive). Moreover, the GI50 in the experiment on Malme-3M, in the experiment with NCI-H522, in the experiment with NCI-H226, in the experiment with SF-295, in the experiment on 786-0 and in the experiment on CCRF-CEM was > 100 µM (inactive) throughout. For the same compound, the GI50 with NCI-H460, in the experiment with K562, in the experiment on HT-29, in the experiment on CAKI-1 and with KM12 was > 100 µM (inactive) throughout.
`C[C@H]1O[C@@H](O[C@H]2[C@@H](O)C[C@H](O[C@H]3[C@@H](O)C[C@H](O[C@H]4CC[C@@]5(C)[C@H](CC[C@@H]6[C@@H]5CC[C@]5(C)[C@@H](C7=CC(=O)OC7)[C@@H](O)C[C@]65O)C4)O[C@@H]3C)O[C@@H]2C)C[C@H](O)[C@@H]1O` [GITOXIN]: the GI50 in the experiment on SNB-75 is 0.703 µM (active); with SN12C it was 0.164 µM (active); in the experiment on UACC-257 it was 0.522 µM (active); in the experiment on RPMI-8226, 0.197 µM (active); with UO-31, 0.219 µM (active); in the experiment with EKVX, 0.164 µM (active). Also, the GI50 in the experiment on Malme-3M was 0.206 µM (active); with NCI-H522 it was 0.0238 µM (active); with NCI-H226, 0.855 µM (active); with PC-3, 0.259 µM (active); with SF-295, 0.169 µM (active); in the experiment on MDA-MB-435, 0.365 µM (active). The GI50 is 0.151 µM (active) in the experiment with 786-0; 0.109 µM (active) with CCRF-CEM; 0.132 µM (active) with NCI-H460; 0.361 µM (active) with K562; 0.177 µM (active) in the experiment on HT-29; 0.107 µM (active) in the experiment with CAKI-1. The GI50 with KM12 was 0.658 µM (active).
